This is an account of results in patent US6716851B2, “Substituted 2-aryl-4-arylaminopyrimidines and analogs as activators or caspases and inducers of apoptosis and the use thereof” (Cytovia, Inc., priority 2000, dated 2004).

One experiment has as its system ZR-75-1 cells. Description: Caspase cascade activation (N-(Ac-DEVD)-N'-ethoxycarbonyl-R110 fluorogenic substrate) in ZR-75-1 cells. The format is cell-based, Human. To be noted: ZR-75-1, 48 h incubation; for EC50: Homo sapiens, caspase activation potency; for ZR Ratio 48 hr: caspase activity: ratio of net RFU of test compound to control. The method in brief:
(§1)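 EC50 comes from sigmoidal fitting of the net RFU ratio over DMSO control, read at ex 485/em 530 nm 3 h after adding 14 μM Ac-DEVD-R110 in lysolecithin/DTT/PIPES pH 7.2 buffer. Compound (0.016-10 μM final) was applied to cells for 48 h at 37 °C beforehand.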

The next experiment relates to T-47D cells. As to the kind of experiment: Caspase cascade activation (N-(Ac-DEVD)-N'-ethoxycarbonyl-R110 fluorogenic substrate) in T-47D cells. The format is cell-based, Human. As to conditions: 48 h incubation; for EC50: Homo sapiens, T47D, caspase activation potency, read-out: T47 EC50; for T47 Ratio 48 hr: caspase activity: ratio of net RFU of test compound to control. In outline:
as §1

Structures can show the parent of a compound that is named as a salt.

For orientation: EC50 means the concentration needed to bring the measured effect to its halfway point. `COc1cc(Nc2cc(C(F)(F)F)nc(-c3cnccn3)n2)cc(OC)c1` [Example 183, 4-(3,5-Dimethoxyanilino)-2-(2-pyrazinyl)-6-trifluoromethylpyrimidine]: in the experiment with ZR-75-1 cells, the response was half-maximal at 75 nM (EC50) and the “ZR Ratio 48 hr” value was 11.5. Besides, in the experiment with T-47D cells, the EC50 stood at 82 nM and the “T47 Ratio 48 hr” value is listed as 17.3.

Take `Cl.Oc1cccc(Nc2cc(C(F)(F)F)nc(-c3ccccn3)n2)c1` [Example 69, 4-(3-Hydroxyanilino)-2-(2-pyridinyl)-6-(trifluoromethyl)pyrimidine hydrochloride]: in the experiment with ZR-75-1 cells, the concentration for a half-maximal effect (EC50) stood at 127 nM and the “ZR Ratio 48 hr” value worked out at 10.9. For the same compound, in the experiment with T-47D cells, the EC50 was found to be 382 nM and the “T47 Ratio 48 hr” value was 14.2.

`COc1cc(C)c(Nc2cc(C(F)(F)F)nc(-c3cccnc3)n2)cc1OC` [Example 157, 4-(4,5-Dimethoxy-2-methylanilino)-2-(3-pyridinyl)-6-(trifluoromethyl)pyrimidine]: in the experiment with ZR-75-1 cells, the midpoint of the response, the EC50, lay at 197 nM and the “ZR Ratio 48 hr” value turned out to be 6.4. Moreover, in the experiment with T-47D cells, the EC50 came to 43 nM and the “T47 Ratio 48 hr” value was found to be 6.6.

For the compound `COc1cc(C)c(Nc2cc(C(F)(F)F)nc(-c3cnccn3)n2)cc1OC.Cl` [Example 153, 4-(4,5-Dimethoxy-2-methylanilino)-2-(2-pyrazinyl)-6-(trifluoromethyl)pyrimidine hydrochloride], in the experiment on ZR-75-1 cells, the EC50 is 146 nM and the “ZR Ratio 48 hr” value worked out at 9.3. In addition, in the experiment on T-47D cells, the EC50 is 43 nM and the “T47 Ratio 48 hr” value is 15.7.

Regarding `COc1ccc(C)cc1Nc1cc(C(F)(F)F)nc(-c2ccccn2)n1` [Example 190, 4-(2-Methoxy-5-methylanilino)-2-(2-pyridinyl)-6-trifluoromethylpyrimidine], in the experiment with ZR-75-1 cells, a half-maximal effect (EC50) was put at 32 nM and the “ZR Ratio 48 hr” value stood at 16.7. In the experiment on T-47D cells, the EC50 was 29 nM and the “T47 Ratio 48 hr” value turned out to be 19.3.

Regarding `COc1cc(Nc2cc(C(F)(F)F)nc(-c3cccnc3)n2)c(OC)cc1Cl` [Example 130, 4-(4-Chloro-2,5-dimethoxyanilino)-2-(3-pyridinyl)-6-(trifluoromethyl)pyrimidine hydrochloride], in the experiment with ZR-75-1 cells, the EC50 turned out to be 167 nM and the “ZR Ratio 48 hr” value was 9.7. In the experiment with T-47D cells, the EC50 came to 295 nM and the “T47 Ratio 48 hr” value is reported as 11.3.

Consider `COc1ccc(Cl)cc1Nc1cc(C(F)(F)F)nc(-c2ccncc2)n1` [Example 162, 4-(5-Chloro-2-methoxyanilino)-2-(4-pyridinyl)-6-trifluoromethyl-pyrimidine], for which, in the experiment on ZR-75-1 cells, the EC50 was determined as 360 nM and the “ZR Ratio 48 hr” value came to 7.3. Further, in the experiment on T-47D cells, the EC50 is 272 nM and the “T47 Ratio 48 hr” value came to 11.3.

Regarding `COc1cc(Nc2cc(C(F)(F)F)nc(-c3ccncc3)n2)c(OC)cc1Cl.Cl` [Example 158, 4-(4-Chloro-2,5-dimethoxyanilino)-2-(4-pyridinyl)-6-(trifluoromethyl)pyrimidine hydrochloride], in the experiment with ZR-75-1 cells, the concentration for a half-maximal effect (EC50) is 133 nM and the “ZR Ratio 48 hr” value was 6.0. In the experiment with T-47D cells, the concentration giving a half-maximal response (EC50) was determined as 509 nM and the “T47 Ratio 48 hr” value came to 9.5.

Turning to `COc1cc(Nc2cc(C(F)(F)F)nc(-c3cnccn3)n2)c(OC)cc1Cl.Cl` [Example 151, 4-(4-Chloro-2,5-dimethoxyanilino)-(2-pyrazinyl)-6-(trifluoromethyl)pyrimidine hydrochloride], in the experiment on ZR-75-1 cells, a half-maximal effect (EC50) was put at 276 nM and the “ZR Ratio 48 hr” value is given as 8.6. In the experiment with T-47D cells, the EC50 came to 388 nM and the “T47 Ratio 48 hr” value is reported as 12.0.

Turning to `COc1ccc(Cl)c(Nc2cc(C(F)(F)F)nc(-c3ccccc3)n2)c1` [Example 81, 4-(2-Chloro-5-methoxyanilino)-2-phenyl-6-(trifluoromethyl)pyrimidine], in the experiment with ZR-75-1 cells, the EC50 worked out at 5500 nM and the “ZR Ratio 48 hr” value is 5.0. Moreover, in the experiment on T-47D cells, the EC50 came to 5050 nM and the “T47 Ratio 48 hr” value turned out to be 12.7.

On to `COc1ccc(Cl)c(Nc2cc(C(F)(F)F)nc(-c3cc(Cl)nc(Cl)c3)n2)c1` [Example 164, 4-(2-Chloro-5-methoxyanilino)-2-(2,6-dichloro-4-pyridinyl)-6-trifluoromethyl-pyrimidine], for which, in the experiment with ZR-75-1 cells, the EC50 was > 5000 nM and the “ZR Ratio 48 hr” value is on record as 1.3. For the same compound, in the experiment with T-47D cells, the EC50 is > 5000 nM and the “T47 Ratio 48 hr” value is on record as 1.3.

In the case of `Oc1ccc(Cl)c(Nc2cc(C(F)(F)F)nc(-c3ccncc3)n2)c1` [Example 107, 4-(2-Chloro-5-hydroxyanilino)-2-(4-pyridinyl)-6-(trifluoromethyl)pyrimidine], in the experiment on ZR-75-1 cells, a half-maximal effect (EC50) was put at 123 nM and the “ZR Ratio 48 hr” value was determined as 5.3. In addition, in the experiment with T-47D cells, the 50% effective concentration (EC50) stood at 63 nM and the “T47 Ratio 48 hr” value was determined as 8.0.

As to `COc1ccc(OC)c(Nc2cc(-c3ccccn3)nc(-c3ccccn3)n2)c1` [Example 110, 4-(2,5-Dimethoxyanilino)-2,6-di(2-pyridinyl)pyrimidine], in the experiment on ZR-75-1 cells, the EC50 was 648 nM and the “ZR Ratio 48 hr” value is 11.6. In the experiment on T-47D cells, the EC50 came to 576 nM and the “T47 Ratio 48 hr” value turned out to be 8.9.

Take `COc1cc(C)c(Nc2cc(C(F)(F)F)nc(-c3ccccn3)n2)cc1OC.Cl` [Example 152, 4-(4,5-Dimethoxy-2-methylanilino)-2-(2-pyridinyl)-6-(trifluoromethyl)pyrimidine hydrochloride]: in the experiment with ZR-75-1 cells, a half-maximal effect (EC50) was put at 212 nM and the “ZR Ratio 48 hr” value was found to be 8.6. In the experiment on T-47D cells, the EC50 was 35 nM and the “T47 Ratio 48 hr” value came to 14.6.

Turning to `COc1ccc(Cl)c(Nc2cc(C(F)(F)F)nc(-c3ccc(C(F)(F)F)nc3)n2)c1` [Example 125, 4-(2-Chloro-5-methoxyanilino)-2-[6-(trifluoromethyl)-3-pyridinyl]-6-(trifluoromethyl)pyrimidine], in the experiment on ZR-75-1 cells, the response was half-maximal at 2240 nM (EC50) and the “ZR Ratio 48 hr” value is reported as 8.1. For the same compound, in the experiment with T-47D cells, the EC50 was 3470 nM and the “T47 Ratio 48 hr” value is 4.4.

Regarding `Oc1ccc(Cl)c(Nc2cc(C(F)(F)F)nc(-c3cccnc3)n2)c1` [Example 106, 4-(2-Chloro-5-hydroxyanilino)-2-(3-pyridinyl)-6-(trifluoromethyl)pyrimidine], in the experiment with ZR-75-1 cells, the EC50 worked out at 982 nM and the “ZR Ratio 48 hr” value is reported as 2.4. In the experiment with T-47D cells, the EC50 is 183 nM and the “T47 Ratio 48 hr” value came to 9.0.

Turning to `Cc1ccc(O)cc1Nc1cc(C(F)(F)F)nc(-c2ccccn2)n1` [Example 188, 4-(5-Hydroxy-2-methylanilino)-2-(2-pyridinyl)-6-trifluoromethylpyrimidine], in the experiment on ZR-75-1 cells, the EC50 was 271 nM and the “ZR Ratio 48 hr” value was found to be 9.3. In addition, in the experiment on T-47D cells, the EC50 was 429 nM and the “T47 Ratio 48 hr” value stood at 3.6.

Turning to `COc1cc(Nc2cc(C(F)(F)F)nc(-c3ccncc3)n2)cc(OC)c1` [Example 161, 4-(3,5-Dimethoxyanilino)-2-(4-pyridinyl)-6-trifluoromethyl-pyrimidine], in the experiment with ZR-75-1 cells, the EC50 turned out to be 86 nM and the “ZR Ratio 48 hr” value was determined as 5.1. In addition, in the experiment with T-47D cells, the half-maximal effective concentration (EC50) was found to be 79 nM and the “T47 Ratio 48 hr” value was 10.7.

`Cc1ccc(C)c(Nc2cc(-c3ccccn3)nc(-c3ccccn3)n2)c1` [Example 114, 4-(2,5-Dimethylanilino)-2,6-di(2-pyridinyl)pyrimidine]: in the experiment on ZR-75-1 cells, the EC50 is 2800 nM and the “ZR Ratio 48 hr” value worked out at 3.7. Further, in the experiment with T-47D cells, the EC50 amounted to 2540 nM and the “T47 Ratio 48 hr” value amounted to 3.6.

On to `Cc1cc(Nc2c(C)cccc2C)nc(-c2ccccn2)n1` [Example 108, 4-(2,6-Dimethylanilino)-6-methyl-2-(2-pyridinyl)pyrimidine], for which, in the experiment on ZR-75-1 cells, the EC50 amounted to 4370 nM and the “ZR Ratio 48 hr” value is recorded as 2.4. Moreover, in the experiment with T-47D cells, the EC50 was > 5000 nM and the “T47 Ratio 48 hr” value came to 0.9.

Regarding `FC(F)(F)c1cc(Nc2cccc(-c3ccccc3)c2)nc(-c2cccnc2)n1` [Example 60, 4-(3-Phenylanilino)-2-(3-pyridinyl)-6-(trifluoromethyl)pyrimidine], in the experiment with ZR-75-1 cells, the EC50 is > 5000 nM and the “ZR Ratio 48 hr” value came out at 1.4. Moreover, in the experiment with T-47D cells, the EC50 is > 5000 nM and the “T47 Ratio 48 hr” value is 1.8.

Turning to `Cl.Oc1cccc(Nc2cc(C(F)(F)F)nc(-c3cccnc3)n2)c1` [Example 97, 4-(3-Hydroxyanilino)-2-(3-pyridinyl)-6-(trifluoromethyl)pyrimidine hydrochloride], in the experiment with ZR-75-1 cells, the response was half-maximal at 717 nM (EC50) and the “ZR Ratio 48 hr” value was determined as 6.7. Also, in the experiment on T-47D cells, the EC50 is 659 nM and the “T47 Ratio 48 hr” value came to 14.5.

With `COc1ccc(Oc2ccccc2)cc1Nc1cc(C(F)(F)F)nc(-c2cccnc2)n1` [Example 85, 4-(2-Methoxy-5-phenoxyanilino)-2-(3-pyridinyl)-6-(trifluoromethyl)pyrimidine], in the experiment with ZR-75-1 cells, the midpoint of the response, the EC50, lay at 2830 nM and the “ZR Ratio 48 hr” value is recorded as 6.7. Also, in the experiment with T-47D cells, the EC50 is > 5000 nM and the “T47 Ratio 48 hr” value stood at 1.7.

On to `COc1cccc(Nc2nc(-c3ccccn3)ncc2OC)c1` [Example 18, 4-(3-Methoxyanilino)-5-methoxy-2-(2-pyridinyl)pyrimidine], for which, in the experiment on ZR-75-1 cells, the EC50 stood at 4900 nM and the “ZR Ratio 48 hr” value came out at 7.8. Besides, in the experiment with T-47D cells, the EC50 was > 5000 nM and the “T47 Ratio 48 hr” value came to 1.9.
